Laboratory results taken from ChEMBL document CHEMBL1201862, “PubChem BioAssay data set” (2004).
Values joined by “and” are separate entries in the source; they are usually repeats but may differ in a detail not shown here. Equal entries are not always repeated.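 Method: 48-hour compound exposure of cells in 96-well plates, five concentrations, linear interpolation of endpoints. Here, GI50 denotes the concentration required for 50% inhibition of growth.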 Active and inactive are the calls of the source. Rule as the data show it: active = GI50 up to about 1.1 µM and inactive = higher.

Tests used:
Experiment in all cases: DTP human tumour cell line panel, 48 h
KM12 = system: KM12
MDA-N = system: MDA-N
T47D = system: T47D
SK-MEL-2 = system: SK-MEL-2
RPMI-8226 = system: RPMI-8226
OVCAR-5 = system: OVCAR-5
CCRF-CEM = system: CCRF-CEM
RXF 393 = system: RXF 393
COLO 205 = system: COLO 205
SF-295 = system: SF-295
M14 = system: M14
HOP-92 = system: HOP-92
HCT-15 = system: HCT-15
MDA-MB-231 = system: MDA-MB-231
HL-60 = system: HL-60
SN12C = system: SN12C
SR = system: SR
SF-268 = system: SF-268
HT-29 = system: HT-29
HCC 2998 = system: HCC 2998
LOX IMVI = system: LOX IMVI
K562 = system: K562
MDA-MB-435 = system: MDA-MB-435
NCI-H460 = system: NCI-H460
NCI/ADR-RES = system: NCI/ADR-RES
DU-145 = system: DU-145
OVCAR-3 = system: OVCAR-3
HOP-62 = system: HOP-62
DMS-273 = system: DMS-273
MOLT-4 = system: MOLT-4
Hs-578T = system: Hs-578T
DLD-1 = system: DLD-1
SW-620 = system: SW-620
KM-20L2 = system: KM-20L2
XF498 = system: XF498
HOP-18 = system: HOP-18
U-251 = system: U-251
MCF7 = system: MCF7
M19-MEL = system: M19-MEL
NCI-H23 = system: NCI-H23
NCI-H226 = system: NCI-H226
786-0 = system: 786-0
NCI-H522 = system: NCI-H522
A549 = system: A549
EKVX = system: EKVX
CAKI-1 = system: CAKI-1
HCT-116 = system: HCT-116
ACHN = system: ACHN
UACC-257 = system: UACC-257
DMS-114 = system: DMS-114
SK-MEL-28 = system: SK-MEL-28
OVCAR-4 = system: OVCAR-4
SK-MEL-5 = system: SK-MEL-5
TK-10 = system: TK-10
SNB-75 = system: SNB-75
OVCAR-8 = system: OVCAR-8
SNB-78 = system: SNB-78
UO-31 = system: UO-31
SNB-19 = system: SNB-19
Malme-3M = system: Malme-3M
SF-539 = system: SF-539
UACC-62 = system: UACC-62
A498 = system: A498
IGROV-1 = system: IGROV-1
SK-OV-3 = system: SK-OV-3

In the case of `CSc1nc(C)c(Br)c(=O)n1C1OC(COC(C)=O)C(OC(C)=O)C(OC(C)=O)C1OC(C)=O` (configuration not stated), the GI50 (KM12) is reported as > 100 µM (inactive), the GI50 (MDA-N) is reported as > 100 µM (inactive) and the GI50 (T47D) is reported as > 100 µM (inactive). The GI50 (SK-MEL-2) was 56.5 µM (inactive), the GI50 (RPMI-8226) was > 100 µM (inactive) and the GI50 (OVCAR-5) was > 100 µM (inactive) and 94.2 µM (inactive). For the same compound, the GI50 (CCRF-CEM) was > 100 µM (inactive), the GI50 (RXF 393) was 20.5 µM (inactive) and 19.9 µM (inactive) and the GI50 (COLO 205) was > 100 µM (inactive). For the same compound, the GI50 (SF-295) was 24.2 µM (inactive) and 26.9 µM (inactive), the GI50 (M14) was > 100 µM (inactive) and the GI50 (HOP-92) was 20.1 µM (inactive) and 13.6 µM (inactive). For the same compound, the GI50 (HCT-15) was over 100 µM, the GI50 (MDA-MB-231) was 63.8 µM (inactive) and the GI50 (HL-60) was > 100 µM (inactive). The GI50 (SN12C) was > 100 µM (inactive), the GI50 (SR) was > 100 µM (inactive) and the GI50 (SF-268) was 34.1 µM (inactive) and 19.6 µM (inactive). The GI50 (HT-29) was > 100 µM (inactive), the GI50 (HCC 2998) was > 100 µM (inactive) and the GI50 (LOX IMVI) was > 100 µM (inactive). For the same compound, the GI50 (K562) was > 100 µM (inactive), the GI50 (MDA-MB-435) was > 100 µM (inactive) and the GI50 (NCI-H460) was > 100 µM (inactive) and 97.1 µM (inactive). The GI50 (NCI/ADR-RES) was > 100 µM (inactive), the GI50 (DU-145) was > 100 µM (inactive) and the GI50 (OVCAR-3) was > 100 µM (inactive). The GI50 (HOP-62) was 26.8 µM (inactive) and 22 µM (inactive), the GI50 (DMS-273) was 27.7 µM (inactive) and the GI50 (MOLT-4) was > 100 µM (inactive). For the same compound, the GI50 (Hs-578T) was 42.9 µM (inactive), the GI50 (DLD-1) was > 100 µM (inactive) and the GI50 (SW-620) was > 100 µM (inactive). For the same compound, the GI50 (KM-20L2) was > 100 µM (inactive), the GI50 (XF498) was 21.2 µM (inactive) and the GI50 (HOP-18) was 60.4 µM (inactive). For the same compound, the GI50 (U-251) was 39.1 µM (inactive) and 22.4 µM (inactive) and the GI50 (MCF7) was > 100 µM (inactive).

In the case of `COC(=O)c1ccc(OCc2ccc3oc(=O)c(-c4ccccc4)nc3c2)cc1`, the GI50 (M19-MEL) is reported as > 100 µM (inactive), the GI50 (KM12) is reported as > 100 µM (inactive) and the GI50 (NCI-H23) is reported as 71.3 µM (inactive). The GI50 (NCI-H226) was > 100 µM (inactive), the GI50 (786-0) was 28.9 µM (inactive) and the GI50 (SK-MEL-2) was > 100 µM (inactive). For the same compound, the GI50 (RPMI-8226) was 34.9 µM (inactive), the GI50 (NCI-H522) was 33.6 µM (inactive) and the GI50 (A549) was > 100 µM (inactive). The GI50 (OVCAR-5) was > 100 µM (inactive), the GI50 (EKVX) was > 100 µM (inactive) and the GI50 (CAKI-1) was > 100 µM (inactive). The GI50 (CCRF-CEM) was 23.5 µM (inactive), the GI50 (COLO 205) was 33.9 µM (inactive) and the GI50 (HCT-116) was > 100 µM (inactive). For the same compound, the GI50 (SF-295) was > 100 µM (inactive), the GI50 (M14) was > 100 µM (inactive) and the GI50 (ACHN) was > 100 µM (inactive). For the same compound, the GI50 (UACC-257) was > 100 µM (inactive), the GI50 (HCT-15) was over 100 µM and the GI50 (HL-60) was 28.4 µM (inactive). For the same compound, the GI50 (DMS-114) was > 100 µM (inactive), the GI50 (SK-MEL-28) was > 100 µM (inactive) and the GI50 (SN12C) was > 100 µM (inactive). The GI50 (SR) was 30.8 µM (inactive), the GI50 (OVCAR-4) was > 100 µM (inactive) and the GI50 (SK-MEL-5) was > 100 µM (inactive). The GI50 (SF-268) was > 100 µM (inactive), the GI50 (TK-10) was 44 µM (inactive) and the GI50 (HT-29) was > 100 µM (inactive). The GI50 (HCC 2998) was > 100 µM (inactive), the GI50 (LOX IMVI) was > 100 µM (inactive) and the GI50 (K562) was 27.9 µM (inactive). The GI50 (NCI-H460) was > 100 µM (inactive), the GI50 (SNB-75) was > 100 µM (inactive) and the GI50 (OVCAR-8) was > 100 µM (inactive). For the same compound, the GI50 (SNB-78) was > 100 µM (inactive), the GI50 (OVCAR-3) was 44.9 µM (inactive) and the GI50 (HOP-62) was > 100 µM (inactive). For the same compound, the GI50 (UO-31) was > 100 µM (inactive), the GI50 (DMS-273) was > 100 µM (inactive) and the GI50 (MOLT-4) was 22.9 µM (inactive). The GI50 (SNB-19) was > 100 µM (inactive), the GI50 (Malme-3M) was 59.2 µM (inactive) and the GI50 (DLD-1) was 15.2 µM (inactive). For the same compound, the GI50 (SW-620) was 57.3 µM (inactive), the GI50 (XF498) was 84.3 µM (inactive) and the GI50 (HOP-18) was > 100 µM (inactive). For the same compound, the GI50 (U-251) was > 100 µM (inactive) and the GI50 (SF-539) was > 100 µM (inactive).

In the case of `C=C1CCCC(C)(C)[C@@H]1CC/C(C)=C/Cn1c2cccc(=O)c-2nc2ccccc21`, the GI50 (M19-MEL) is reported as 1.26 µM (inactive), the GI50 (KM12) is reported as 2.81 µM (inactive) and the GI50 (UACC-62) is reported as 0.771 µM (active). For the same compound, the GI50 (NCI-H23) was 1.52 µM (inactive), the GI50 (A498) was 3.52 µM (inactive) and the GI50 (NCI-H226) was 3.99 µM (inactive). For the same compound, the GI50 (SK-MEL-2) was 2.37 µM (inactive), the GI50 (RPMI-8226) was 2.04 µM (inactive) and the GI50 (A549) was 1.72 µM (inactive). The GI50 (OVCAR-5) was 3.25 µM (inactive), the GI50 (EKVX) was 4.4 µM (inactive) and the GI50 (CAKI-1) was 1.77 µM (inactive). For the same compound, the GI50 (CCRF-CEM) was 0.406 µM (active), the GI50 (COLO 205) was 1.96 µM (inactive) and the GI50 (HCT-116) was 1.35 µM (inactive). The GI50 (SF-295) was 1.45 µM (inactive), the GI50 (HOP-92) was 1.94 µM (inactive) and the GI50 (UACC-257) was 1.96 µM (inactive). The GI50 (HCT-15) was 1.18 µM, the GI50 (HL-60) was 0.127 µM (active) and the GI50 (DMS-114) was 1.09 µM (active). For the same compound, the GI50 (SK-MEL-28) was 4.63 µM (inactive), the GI50 (SN12C) was 1.59 µM (inactive) and the GI50 (OVCAR-4) was 1.81 µM (inactive). The GI50 (SK-MEL-5) was 3.95 µM (inactive), the GI50 (SF-268) was 1.39 µM (inactive) and the GI50 (HT-29) was 1.77 µM (inactive). The GI50 (HCC 2998) was 2.06 µM (inactive), the GI50 (LOX IMVI) was 1.15 µM (inactive) and the GI50 (K562) was 1.07 µM (active). The GI50 (NCI-H460) was 1.21 µM (inactive), the GI50 (NCI/ADR-RES) was 0.656 µM (active) and the GI50 (SNB-75) was 1.41 µM (inactive). The GI50 (IGROV-1) was 1.71 µM (inactive), the GI50 (OVCAR-8) was 1.55 µM (inactive) and the GI50 (OVCAR-3) was 3.18 µM (inactive). The GI50 (HOP-62) was 3.48 µM (inactive), the GI50 (UO-31) was 2.77 µM (inactive) and the GI50 (DMS-273) was 1.48 µM (inactive). The GI50 (MOLT-4) was 0.41 µM (active), the GI50 (SNB-19) was 4.51 µM (inactive) and the GI50 (DLD-1) was 1.26 µM (inactive). For the same compound, the GI50 (SW-620) was 1.61 µM (inactive), the GI50 (XF498) was 2.29 µM (inactive) and the GI50 (HOP-18) was 7.1 µM (inactive). For the same compound, the GI50 (U-251) was 1.53 µM (inactive), the GI50 (SF-539) was 1.66 µM (inactive) and the GI50 (MCF7) was 2.55 µM (inactive). For the same compound, the GI50 (SK-OV-3) was 4.15 µM (inactive).
